Measurements reported in US20120129870A1, “PIPERAZINYL DERIVATIVES USEFUL AS MODULATORS OF THE NEUROPEPTIDE Y2 RECEPTOR” (priority 2007, published 2012).

Key:
NPY Y2 receptor [1] = biological target: T1, NPY Y2 receptor (Homo sapiens, UniProt P49146); assay: Neuropeptide Y2 pKB assay (FLIPR, KAN-Ts cells stably expressing chimeric G proteins); format: cell-based; conditions: apparent pKB, modified Cheng-Prusoff correction
T1 sequence (P49146 1-381): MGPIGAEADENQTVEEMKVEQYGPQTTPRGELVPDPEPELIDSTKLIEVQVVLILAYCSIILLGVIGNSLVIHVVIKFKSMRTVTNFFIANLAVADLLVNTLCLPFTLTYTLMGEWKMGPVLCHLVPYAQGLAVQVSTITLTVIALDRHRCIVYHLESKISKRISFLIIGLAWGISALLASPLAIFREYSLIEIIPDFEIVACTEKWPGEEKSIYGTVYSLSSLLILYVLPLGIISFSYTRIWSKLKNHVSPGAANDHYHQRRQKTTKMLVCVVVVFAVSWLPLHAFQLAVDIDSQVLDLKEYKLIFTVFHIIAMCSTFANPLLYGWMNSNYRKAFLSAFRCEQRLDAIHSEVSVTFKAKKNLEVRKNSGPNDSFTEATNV
Procedure: The assay was performed using the fluorimetric imaging plate reader (FLIPR) format as described in Dautzenberg, F. M., Biochemical Pharmacology 2005, 69, 1493.
KAN-Ts cells stably expressing chimeric G proteins were seeded at a density of 100,000 cells into poly-d-lysine coated 384-well blackwall, clear-bottom microtiter plates (Corning, N.Y.). One day later, the medium was removed and 50 μl loading medium DMEM high glucose, without serum, supplemented with 10 mM HEPES-acid, 0.1% BSA, 5 mM probenecid and 2 μM Fluo-3AM was added. Cells were loaded for 1 h at 37° C., washed twice with 50 μl assay buffer (5 mM HEPES-acid, 140 mM NaCl, 1 mM MgCl2, 5 mM KCl, 10 mM glucose) and then 30 μl assay buffer was added. Cells were further pre-incubated at room temperature before adding agonists or agonists plus antagonists in 20 μl assay buffer and then measured on a T-channel fluorometric imaging plate reader (FLIPR, Molecular Devices, Sunnyvale, Calif.). Antagonistic potency values were converted to apparent pKB values using a modified Cheng-Prusoff correction. Apparent pKB was calculated as pKB=−log IC50/1+[conc agonist/EC50].

NPY Y2 receptor [2] = biological target: T1, NPY Y2 receptor; assay: Neuropeptide Y2 radioligand binding assay ([125I]PYY, KAN-Ts membranes); set-up: endogenous in cells; host or cells: KAN-Ts cells (membrane preparation); conditions: for IC50: KAN-Ts membranes endogenously expressing Y2, [125I]PYY (80 pM), 1 h at rt; for Ki: apparent Ki=IC50/(1+C/KD)
Method in brief: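 Membranes from KAN-Ts cells with endogenous Y2 receptors, incubated with 80 pM [125I]PYY ± compound for 1 h at rt in HEPES/NaCl/CaCl2/MgSO4 buffer, then filtered and counted. Nonspecific binding defined with […]. IC50 from sigmoidal fit; Ki = IC50/(1+C/KD).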

| Structure (SMILES) | Kb (NPY Y2 receptor [1]) [nM] | IC50 (NPY Y2 receptor [2]) [nM] | Ki (NPY Y2 receptor [2]) [nM] |
| --- | --- | --- | --- |
| CCC(CC)C(=O)Nc1ccc(N2CCN(C(c3ccc(F)cc3)c3ncco3)CC2)c(C#N)c1 (stereo not shown) [Compound 139, N-(3-Cyano-4-{4-[(4-fluoro-phenyl)-oxazol-2-yl-methyl]-piperazin-1-yl}-phenyl)-2-ethyl-butyramide] | 25.1 | 21 |  |
| CCC(CC)C(=O)Nc1ccc(N2CCN(C(c3ccccc3)c3ccccc3)CC2)c(C#N)c1 [Compound 304, N-[4-(4-Benzhydryl-piperazin-1-yl)-3-cyano-phenyl]-2-ethyl-butyramide] | 501 |  | 4.7 |
| CCC(CC)C(=O)Nc1ccc(N2CCN(C(c3ccccc3)c3nc4ccccc4o3)CC2)c(F)c1 (stereo not shown) [Compound 165, N-{4-[4-(Benzooxazol-2-yl-phenyl-methyl)-piperazin-1-yl]-3-fluoro-phenyl}-2-ethyl-butyramide] | 100 | 18 |  |
| CCC(CC)C(=O)Nc1ccc(N2CCN(C(c3ccc(C#N)cc3)c3ncco3)CC2)c(C#N)c1 (stereo not shown) [Compound 145, N-(3-Cyano-4-{4-[(4-cyano-phenyl)-oxazol-2-yl-methyl]-piperazin-1-yl}-phenyl)-2-ethyl-butyramide] | 63.1 | 33 |  |
| CCC(CC)C(=O)Nc1ccc(N2CCN(C(c3cccc(F)c3)c3ncco3)CC2)c(C#N)c1 (stereo not shown) [Compound 131, N-(3-Cyano-4-{4-[(3-fluoro-phenyl)-oxazol-2-yl-methyl]-piperazin-1-yl}-phenyl)-2-ethyl-butyramide] | 12.6 | 7 |  |
| CCc1noc(C(c2ccccc2)N2CCN(c3ccc(NC(=O)C(CC)CC)cc3F)CC2)n1 (stereo not shown) [Compound 1, 2-Ethyl-N-(4-{4-[(3-ethyl-[1,2,4]-oxadiazol-5-yl)-phenyl-methyl]-piperazin-1-yl}-3-fluoro-phenyl)-butyramide] | 35.5 | 27 |  |
| CCC(CC)C(=O)Nc1ccc(N2CCN(C(c3ccc(OC)cc3)c3ncco3)CC2)c(C#N)c1 (stereo not shown) [Compound 141, N-(3-Cyano-4-{4-[(4-methoxy-phenyl)-oxazol-2-yl-methyl]-piperazin-1-yl}-phenyl)-2-ethyl-butyramide] | 50.1 | 29 |  |
| CCC(CC)C(=O)Nc1ccc(N2CCN(C(c3ccccc3)c3nc4ccccc4s3)CC2)c(C#N)c1 (stereo not shown) [Compound 169, N-{4-[4-(Benzothiazol-2-yl-phenyl-methyl)-piperazin-1-yl]-3-cyano-phenyl}-2-ethyl-butyramide] | 50.1 | 39 |  |
| CCC(CC)C(=O)Nc1ccc(N2CCN(C(c3ccccc3)c3ccncc3)CC2)c(C#N)c1 (stereo not shown) [Compound 315, N-{3-Cyano-4-[4-(phenyl-pyridin-4-yl-methyl)-piperazin-1-yl]-phenyl}-2-ethyl-butyramide] | 50.1 |  | 4.4 |
| N#Cc1cc(NC(=O)C2CC2)ccc1N1CCN(C(c2ccccc2)c2cccnc2)CC1 (stereo not shown) [Compound 321, Cyclopropanecarboxylic acid {3-cyano-4-[4-(phenyl-pyridin-3-yl-methyl)-piperazin-1-yl]-phenyl}-amide] | 31.6 |  | 11 |
| CCC(CC)C(=O)Nc1ccc(N2CCN(C(c3ccccc3)c3nnc(C(CC)CC)o3)CC2)c(F)c1 (stereo not shown) [Compound 163, 2-Ethyl-N-[4-(4-{[5-(1-ethyl-propyl)-[1,3,4]oxadiazol-2-yl]-phenyl-methyl}-piperazin-1-yl)-3-fluoro-phenyl]-butyramide] | 100 | 20 |  |

Further lines, results first:

| Kb (NPY Y2 receptor [1]) [nM] | IC50 (NPY Y2 receptor [2]) [nM] | Ki (NPY Y2 receptor [2]) [nM] | Structure (SMILES) |
| --- | --- | --- | --- |
| 31.6 | 25 |  | CCC(CC)C(=O)Nc1ccc(N2CCN(C(c3ccccc3)c3noc(-c4cccnc4)n3)CC2)c(F)c1 (stereo not shown) [Compound 238, 2-Ethyl-N-(3-fluoro-4-{4-[phenyl-(5-pyridin-3-yl-[1,2,4]-oxadiazol-3-yl)-methyl]-piperazin-1-yl}-phenyl)-butyramide] |
| 25.1 | 12 |  | CCC(CC)C(=O)Nc1ccc(N2CCN(C(c3ccccc3)c3cc(C)no3)CC2)c(F)c1 (stereo not shown) [Compound 230, 2-Ethyl-N-(3-fluoro-4-{4-[(3-methyl-isoxazol-5-yl)-phenyl-methyl]-piperazin-1-yl}-phenyl)-butyramide] |
| 63.1 | 45 |  | CCC(CC)C(=O)Nc1ccc(N2CCN(C(c3cccc(F)c3)c3ncco3)CC2)c(F)c1 (stereo not shown) [Compound 132, 2-Ethyl-N-(3-fluoro-4-{4-[(3-fluoro-phenyl)-oxazol-2-yl-methyl]-piperazin-1-yl}-phenyl)-butyramide] |
| 100 | 29 |  | CC(CC(F)(F)F)C(=O)Nc1ccc(N2CCN(C(c3ccccc3)c3ncco3)CC2)c(C#N)c1 (stereo not shown) [Compound 110, N-{3-Cyano-4-[4-(oxazol-2-yl-phenyl-methyl)-piperazin-1-yl]-phenyl}-4,4,4-trifluoro-2-methyl-butyramide] |
| 12.6 | 13 |  | CCC(CC)C(=O)Nc1ccc(N2CCN(C(c3ccccc3)c3noc(C)n3)CC2)c(F)c1 (stereo not shown) [Compound 239, 2-Ethyl-N-(3-fluoro-4-{4-[(5-methyl-[1,2,4]-oxadiazol-3-yl)-phenyl-methyl]-piperazin-1-yl}-phenyl)-butyramide] |
| 100 | 52 |  | CCC(CC)C(=O)Nc1ccc(N2CCN(C(c3ccccc3)c3ncccn3)CC2)c(F)c1 (stereo not shown) [Compound 40, 2-Ethyl-N-{3-fluoro-4-[4-(phenyl-pyrimidin-2-yl-methyl)-piperazin-1-yl]-phenyl}-butyramide] |
| 10000 | 95 |  | O=C(Nc1ccc(N2CCN(C(c3ccccc3)c3ncco3)CC2)c(F)c1)C1CCCC1 (stereo not shown) [Compound 54, Cyclopentanecarboxylic acid {3-fluoro-4-[4-(oxazol-2-yl-phenyl-methyl)-piperazin-1-yl]-phenyl}amide] |
| 79.4 | 40 |  | CCC(CC)C(=O)Nc1ccc(N2CCN(C(c3ccccc3)c3cccnc3)CC2)c(F)c1 (stereo not shown) [Compound 24, 2-Ethyl-N-{3-fluoro-4-[4-(phenyl-pyridin-3-yl-methyl)-piperazin-1-yl]-phenyl}-butyramide] |
| 50.1 | 22 |  | CCC(CC)C(=O)Nc1ccc(N2CCN(C(c3ccccc3)c3noc(C(C)C)n3)CC2)c(F)c1 (stereo not shown) [Compound 82, 2-Ethyl-N-(3-fluoro-4-{4-[(5-isopropyl-[1,2,4]-oxadiazol-3-yl)-phenyl-methyl]-piperazin-1-yl}-phenyl)-butyramide] |
| 15.8 | 23 |  | CCc1nc(C(c2ccccc2)N2CCN(c3ccc(NC(=O)C(CC)CC)cc3F)CC2)no1 (stereo not shown) [Compound 236, 2-Ethyl-N-(4-{4-[(5-ethyl-[1,2,4]-oxadiazol-3-yl)-phenyl-methyl]-piperazin-1-yl}-3-fluoro-phenyl)-butyramide] |
| 501 |  | 14 | Cc1noc(C)c1C(=O)Nc1ccc(N2CCN(C(c3ccccc3)c3ccccc3)CC2)c(C#N)c1 [Compound 302, N-{3-Cyano-4-[4-(diphenylmethyl)piperazin-1-yl]phenyl}-3,5-dimethylisoxazole-4-carboxamide] |
| 200 | 96 |  | CCC(CC)C(=O)Nc1ccc(N2CCN(C(c3ccccc3)c3ncco3)CC2)c(F)c1 (single isomer, unassigned) [Compound 59, 2-Ethyl-N-{3-fluoro-4-[4-(oxazol-2-yl-phenyl-methyl)-piperazin-1-yl]-phenyl}-butyramide] |
| 200 | 140 |  | Cc1noc(C)c1C(=O)Nc1ccc(N2CCN(C(c3ccccc3)c3ncco3)CC2)c(F)c1 (stereo not shown) [Compound 113, 3,5-Dimethyl-isoxazole-4-carboxylic acid {3-fluoro-4-[4-(oxazol-2-yl-phenyl-methyl)-piperazin-1-yl]-phenyl}-amide] |
| 63.1 | 34 |  | CCC(CC)C(=O)Nc1ccc(N2CCN(C(c3ccccc3)c3ncco3)CC2)c(F)c1 (single isomer, unassigned) [Compound 60, 2-Ethyl-N-{3-fluoro-4-[4-(oxazol-2-yl-phenyl-methyl)-piperazin-1-yl]-phenyl}-butyramide] |
| 31.6 | 38 |  | N#Cc1cc(NC(=O)[C@@H]2CCOC2)ccc1N1CCN(C(c2ccccc2)c2ncco2)CC1 (stereo partly shown) [Compound 90, Tetrahydro-furan-3-carboxylic acid {3-cyano-4-[4-(oxazol-2-yl-phenyl-methyl)-piperazin-1-yl]-phenyl}-amide] |
